Results from patent US12637424B2, “Pharmaceutical salt of an arylpyrrole derivative” (SENTINEL ONCOLOGY LIMITED, priority 2020, dated 2026).
Structures can show the parent of a compound that is named as a salt.

What was measured:
Format in all cases: physicochemical
[1] = Gravimetric solubility in water; details: thermodynamic from solid, gravimetric solubility protocol
Method: The solubility in water of the salts was measured using a gravimetric solubility protocol. 1 ml of water was charged into crystallisation tubes. The solid was weighed into a tared glass vial, added in portions to the solutions and the vial weighed after each addition until a hazy solution was observed. The amount in mg was then calculated to give the solubility in mg/ml.

[2] = Gravimetric vapour sorption (GVS)
Method: The sample was maintained at a constant temperature (25° C.) by the instrument controls. The humidity was controlled by mixing streams of dry and wet nitrogen, with a total flow of 250 ml·min-1. The instrument was verified for relative humidity content by measuring three calibrated Rotronic salt solutions (10-50-88%). The weight change of the sample was monitored as a function of humidity by a microbalance (accuracy+/−0.005 mg). A defined amount of sample was placed in a tared mesh stainless steel basket under ambient conditions. A full experimental cycle typically consisted of three scans (sorption, desorption and sorption) at a constant temperature (25° C.) and 10% RH intervals over a 0-90% range (60 minutes for each humidity level).

[3] = Solubility in (2-hydroxypropyl)-β-cyclodextrin 20% w/v in water; details: continuous stirring, gentle warming to 40° C.
[4] = Powder density and flowability
Method: The compound was allowed to settle prior to weighing with approximately 40 mL volume occupied and bulk density calculated. […] The tap density was then calculated.

ICH storage stability = test: ICH storage stability
Source text: The stability protocol followed ICH guidelines. […] Following storage, these samples were removed from the stability cabinet and analysed for appearance, water content by Karl Fischer titration (KF), and purity. No change in water content or chemical purity by HPLC was observed over six months. […]

[5] = calculated from bulk and tap density

SMILES	solubility [1] [µg/mL]	moisture content before the first desorption ([2]; GVS, 25° C.)	moisture taken up between 80 and 90% RH ([2]; GVS, 25° C., 80-90% RH)	concentration achieved in solution [3] [µg/mL]	powder bulk density [4] [g/mL]	tap density [4] [g/mL]	Carr's index [4, 5] [%]	Hausner ratio [4, 5]	flowability ([4]; descriptor from Carr's index and Hausner ratio)	Appearance (ICH storage stability; T = 0)	Chemical purity by HPLC (ICH storage stability; T = 0) [%]	Water content by KF (ICH storage stability; T = 0) [% w/w]	Appearance (ICH storage stability; T = 6 month, 25° C./60% RH)	Chemical purity by HPLC (ICH storage stability; T = 6 month, 25° C./60% RH) [%]	Water content by KF (ICH storage stability; T = 6 month, 25° C./60% RH) [% w/w]	Appearance (ICH storage stability; T = 6 month, 40° C./75% RH)	Chemical purity by HPLC (ICH storage stability; T = 6 month, 40° C./75% RH) [%]	Water content by KF (ICH storage stability; T = 6 month, 40° C./75% RH) [% w/w]	change in water content or chemical purity by HPLC (ICH storage stability; over six months, 25° C./60% RH and 40° C./75% RH)	moisture uptake (surface moisture) ([2]; at 90% RH) [%]
CN(C)CCNC(=O)c1ccc(-c2ccc(-c3ccc(Cl)cc3)n2-c2ccccc2C(F)(F)F)cc1 (single isomer, unassigned) [Atropisomer A-2 Tartrate Pattern A salt]	6700	–	–	–	–	–	–	–	–	–	–	–	–	–	–	–	–	–	–	–
CN(C)CCNC(=O)c1ccc(-c2ccc(-c3ccc(Cl)cc3)n2-c2ccccc2C(F)(F)F)cc1 (single isomer, unassigned) [Atropisomer A-2 Tartrate Pattern B salt]	7500	ca. 0.3%	ca. 0.8%	> 100000	0.55	~0.659	16.5	1.19	fair	A white solid.	99.60	0.2	A white solid.	99.60	0.2	A white solid.	99.60	0.2	No change	–
CN(C)CCNC(=O)c1ccc(-c2ccc(-c3ccc(Cl)cc3)n2-c2ccccc2C(F)(F)F)cc1 [(+)-L-tartaric acid salt, (R)-4-[5-(4-chlorophenyl)-1-[2-(trifluoromethyl)-phenyl]pyrrol-2-yl]-N-[2-(dimethylamino)-ethyl]benzamide (+)-L-tartaric acid salt]	–	–	–	–	–	–	–	–	–	–	–	–	–	–	–	–	–	–	–	< 1
